test system: test plant species; experiment: Post-emergent herbicidal activity test (greenhouse, foliar spray, visual growth reduction); format: in vivo; settings: post-emergence, 336 h, ALOMY: blackgrass (Alopecurus myosuroides), 140 g ai/ha, 14 days after application, read-out: Visual Growth Reduction (%) 14 Days After Application, ALOMY
Method in brief: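 Scoring used a 0 to 100 percent visual scale of growth reduction against solvent-treated controls, read 14 d after spraying. Applications went onto plants at first or second true leaf stage, 187 L/ha, with crop oil concentrate and X-77 surfactant in the carrier. Post-treatment watering was by subirrigation to avoid wash-off.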

| SMILES | pest or weed control at 140 g/ha [%] |
| --- | --- |
| COC(=O)c1nc(-c2ccc(C(F)(F)F)cc2Cl)c(F)cc1Cl [F107, methyl 3-chloro-6-(2-chloro-4-(trifluoromethyl)phenyl)-5-fluoropicolinate] | 30 to 44 |
| COC(=O)c1nc(-c2cc3c(cc2F)OC(F)(F)O3)c(F)cc1Cl [F173, Methyl 3-chloro-5-fluoro-6-(2,2,6-trifluorobenzo[d] [1,3]dioxol-5-yl)picolinate] | 60 to 74 |

same assay, conditions: post-emergence, 336 h, AMARE: redroot pigweed (Amaranthus retroflexus), 140 g ai/ha, 14 days after application, read-out: Visual Growth Reduction (%) 14 Days After Application, AMARE

| SMILES | pest or weed control at 140 g/ha [%] |
| --- | --- |
| COC(=O)c1nc(-c2ccc(C(F)(F)F)cc2Cl)c(F)cc1Cl [F107, methyl 3-chloro-6-(2-chloro-4-(trifluoromethyl)phenyl)-5-fluoropicolinate] | 95 to 100 |
| COC(=O)c1nc(-c2cc3c(cc2F)OC(F)(F)O3)c(F)cc1Cl [F173, Methyl 3-chloro-5-fluoro-6-(2,2,6-trifluorobenzo[d] [1,3]dioxol-5-yl)picolinate] | 95 to 100 |

same assay, conditions: post-emergence, 336 h, AVEFA: wild oat (Avena fatua), 140 g ai/ha, 14 days after application, read-out: Visual Growth Reduction (%) 14 Days After Application, AVEFA

| SMILES | pest or weed control at 140 g/ha [%] |
| --- | --- |
| COC(=O)c1nc(-c2ccc(C(F)(F)F)cc2Cl)c(F)cc1Cl [F107, methyl 3-chloro-6-(2-chloro-4-(trifluoromethyl)phenyl)-5-fluoropicolinate] | 45 to 59 |
| COC(=O)c1nc(-c2cc3c(cc2F)OC(F)(F)O3)c(F)cc1Cl [F173, Methyl 3-chloro-5-fluoro-6-(2,2,6-trifluorobenzo[d] [1,3]dioxol-5-yl)picolinate] | 75 to 84 |

same assay, conditions: post-emergence, 336 h, CHEAL: lambsquarters (Chenopodium album), 140 g ai/ha, 14 days after application, read-out: Visual Growth Reduction (%) 14 Days After Application, CHEAL

| SMILES | pest or weed control at 140 g/ha [%] |
| --- | --- |
| COC(=O)c1nc(-c2ccc(C(F)(F)F)cc2Cl)c(F)cc1Cl [F107, methyl 3-chloro-6-(2-chloro-4-(trifluoromethyl)phenyl)-5-fluoropicolinate] | 95 to 100 |
| COC(=O)c1nc(-c2cc3c(cc2F)OC(F)(F)O3)c(F)cc1Cl [F173, Methyl 3-chloro-5-fluoro-6-(2,2,6-trifluorobenzo[d] [1,3]dioxol-5-yl)picolinate] | 95 to 100 |

same assay, conditions: post-emergence, 336 h, CIRAR: canada thistle (Cirsium arvense), 140 g ai/ha, 14 days after application, read-out: Visual Growth Reduction (%) 14 Days After Application, CIRAR

| SMILES | pest or weed control at 140 g/ha [%] |
| --- | --- |
| COC(=O)c1nc(-c2ccc(C(F)(F)F)cc2Cl)c(F)cc1Cl [F107, methyl 3-chloro-6-(2-chloro-4-(trifluoromethyl)phenyl)-5-fluoropicolinate] | 95 to 100 |
| COC(=O)c1nc(-c2cc3c(cc2F)OC(F)(F)O3)c(F)cc1Cl [F173, Methyl 3-chloro-5-fluoro-6-(2,2,6-trifluorobenzo[d] [1,3]dioxol-5-yl)picolinate] | 85 to 94 |

same assay, conditions: post-emergence, 336 h, CYPES: yellow nutsedge (Cyperus esculentus), 140 g ai/ha, 14 days after application, read-out: Visual Growth Reduction (%) 14 Days After Application, CYPES

| SMILES | pest or weed control at 140 g/ha [%] |
| --- | --- |
| COC(=O)c1nc(-c2ccc(C(F)(F)F)cc2Cl)c(F)cc1Cl [F107, methyl 3-chloro-6-(2-chloro-4-(trifluoromethyl)phenyl)-5-fluoropicolinate] | 0 to 29 |
| COC(=O)c1nc(-c2cc3c(cc2F)OC(F)(F)O3)c(F)cc1Cl [F173, Methyl 3-chloro-5-fluoro-6-(2,2,6-trifluorobenzo[d] [1,3]dioxol-5-yl)picolinate] | 75 to 84 |

same assay, conditions: post-emergence, 336 h, DIGSA: crabgrass (Digitaria sanguinalis), 140 g ai/ha, 14 days after application, read-out: Visual Growth Reduction (%) 14 Days After Application, DIGSA

| SMILES | pest or weed control at 140 g/ha [%] |
| --- | --- |
| COC(=O)c1nc(-c2ccc(C(F)(F)F)cc2Cl)c(F)cc1Cl [F107, methyl 3-chloro-6-(2-chloro-4-(trifluoromethyl)phenyl)-5-fluoropicolinate] | 95 to 100 |
| COC(=O)c1nc(-c2cc3c(cc2F)OC(F)(F)O3)c(F)cc1Cl [F173, Methyl 3-chloro-5-fluoro-6-(2,2,6-trifluorobenzo[d] [1,3]dioxol-5-yl)picolinate] | 95 to 100 |

same assay, conditions: post-emergence, 336 h, ECHCG: barnyardgrass (Echinochloa crus-galli), 140 g ai/ha, 14 days after application, read-out: Visual Growth Reduction (%) 14 Days After Application, ECHCG

| SMILES | pest or weed control at 140 g/ha [%] |
| --- | --- |
| COC(=O)c1nc(-c2ccc(C(F)(F)F)cc2Cl)c(F)cc1Cl [F107, methyl 3-chloro-6-(2-chloro-4-(trifluoromethyl)phenyl)-5-fluoropicolinate] | 0 to 29 |
| COC(=O)c1nc(-c2cc3c(cc2F)OC(F)(F)O3)c(F)cc1Cl [F173, Methyl 3-chloro-5-fluoro-6-(2,2,6-trifluorobenzo[d] [1,3]dioxol-5-yl)picolinate] | 85 to 94 |

same assay, conditions: post-emergence, 336 h, IPOHE: ivy-leaf morning glory (Ipomoea hederacea), 140 g ai/ha, 14 days after application, read-out: Visual Growth Reduction (%) 14 Days After Application, IPOHE

| SMILES | pest or weed control at 140 g/ha [%] |
| --- | --- |
| COC(=O)c1nc(-c2ccc(C(F)(F)F)cc2Cl)c(F)cc1Cl [F107, methyl 3-chloro-6-(2-chloro-4-(trifluoromethyl)phenyl)-5-fluoropicolinate] | 95 to 100 |
| COC(=O)c1nc(-c2cc3c(cc2F)OC(F)(F)O3)c(F)cc1Cl [F173, Methyl 3-chloro-5-fluoro-6-(2,2,6-trifluorobenzo[d] [1,3]dioxol-5-yl)picolinate] | 95 to 100 |

same assay, conditions: post-emergence, 336 h, KCHSC: kochia (Bassia scoparia), 140 g ai/ha, 14 days after application, read-out: Visual Growth Reduction (%) 14 Days After Application, KCHSC

| SMILES | pest or weed control at 140 g/ha [%] |
| --- | --- |
| COC(=O)c1nc(-c2ccc(C(F)(F)F)cc2Cl)c(F)cc1Cl [F107, methyl 3-chloro-6-(2-chloro-4-(trifluoromethyl)phenyl)-5-fluoropicolinate] | 60 to 74 |
| COC(=O)c1nc(-c2cc3c(cc2F)OC(F)(F)O3)c(F)cc1Cl [F173, Methyl 3-chloro-5-fluoro-6-(2,2,6-trifluorobenzo[d] [1,3]dioxol-5-yl)picolinate] | 60 to 74 |

same assay, conditions: post-emergence, 336 h, ORYSA: rice (Oryza sativa), 140 g ai/ha, 14 days after application, read-out: Visual Growth Reduction (%) 14 Days After Application, ORYSA

| SMILES | pest or weed control at 140 g/ha [%] |
| --- | --- |
| COC(=O)c1nc(-c2ccc(C(F)(F)F)cc2Cl)c(F)cc1Cl [F107, methyl 3-chloro-6-(2-chloro-4-(trifluoromethyl)phenyl)-5-fluoropicolinate] | 0 to 29 |
| COC(=O)c1nc(-c2cc3c(cc2F)OC(F)(F)O3)c(F)cc1Cl [F173, Methyl 3-chloro-5-fluoro-6-(2,2,6-trifluorobenzo[d] [1,3]dioxol-5-yl)picolinate] | 0 to 29 |

same assay, conditions: post-emergence, 336 h, SETFA: giant foxtail (Setaria faberi), 140 g ai/ha, 14 days after application, read-out: Visual Growth Reduction (%) 14 Days After Application, SETFA

| SMILES | pest or weed control at 140 g/ha [%] |
| --- | --- |
| COC(=O)c1nc(-c2ccc(C(F)(F)F)cc2Cl)c(F)cc1Cl [F107, methyl 3-chloro-6-(2-chloro-4-(trifluoromethyl)phenyl)-5-fluoropicolinate] | 45 to 59 |
| COC(=O)c1nc(-c2cc3c(cc2F)OC(F)(F)O3)c(F)cc1Cl [F173, Methyl 3-chloro-5-fluoro-6-(2,2,6-trifluorobenzo[d] [1,3]dioxol-5-yl)picolinate] | 75 to 84 |

same assay, conditions: post-emergence, 336 h, SORVU: grain sorghum (Sorghum vulgare), 140 g ai/ha, 14 days after application, read-out: Visual Growth Reduction (%) 14 Days After Application, SORVU

| SMILES | pest or weed control at 140 g/ha [%] |
| --- | --- |
| COC(=O)c1nc(-c2ccc(C(F)(F)F)cc2Cl)c(F)cc1Cl [F107, methyl 3-chloro-6-(2-chloro-4-(trifluoromethyl)phenyl)-5-fluoropicolinate] | 95 to 100 |
| COC(=O)c1nc(-c2cc3c(cc2F)OC(F)(F)O3)c(F)cc1Cl [F173, Methyl 3-chloro-5-fluoro-6-(2,2,6-trifluorobenzo[d] [1,3]dioxol-5-yl)picolinate] | 95 to 100 |

same assay, conditions: post-emergence, 336 h, STEME: common chickweed (Stellaria media), 140 g ai/ha, 14 days after application, read-out: Visual Growth Reduction (%) 14 Days After Application, STEME

| SMILES | pest or weed control at 140 g/ha [%] |
| --- | --- |
| COC(=O)c1nc(-c2ccc(C(F)(F)F)cc2Cl)c(F)cc1Cl [F107, methyl 3-chloro-6-(2-chloro-4-(trifluoromethyl)phenyl)-5-fluoropicolinate] | 0 to 29 |
| COC(=O)c1nc(-c2cc3c(cc2F)OC(F)(F)O3)c(F)cc1Cl [F173, Methyl 3-chloro-5-fluoro-6-(2,2,6-trifluorobenzo[d] [1,3]dioxol-5-yl)picolinate] | 0 to 29 |

same assay, conditions: post-emergence, 336 h, TRZAS: wheat, spring (Triticum aestivum), 140 g ai/ha, 14 days after application, read-out: Visual Growth Reduction (%) 14 Days After Application, TRZAS

| SMILES | pest or weed control at 140 g/ha [%] |
| --- | --- |
| COC(=O)c1nc(-c2ccc(C(F)(F)F)cc2Cl)c(F)cc1Cl [F107, methyl 3-chloro-6-(2-chloro-4-(trifluoromethyl)phenyl)-5-fluoropicolinate] | 45 to 59 |
| COC(=O)c1nc(-c2cc3c(cc2F)OC(F)(F)O3)c(F)cc1Cl [F173, Methyl 3-chloro-5-fluoro-6-(2,2,6-trifluorobenzo[d] [1,3]dioxol-5-yl)picolinate] | 60 to 74 |

From US20230017045A1, “PYRIDINE AND PYRIMIDINE CARBOXYLATE HERBICIDES AND METHODS OF USE THEREOF” (Dow AgroSciences LLC, priority 2017, published 2023)
